We go through 15 compounds from US12552825B2 (Zikani Therapeutics, Inc., priority 2019, dated 2026).

What all share (assay type): cell-based
Experiment [1] deals with S. aureus MP-12. Description: microbe, parasite or virus in culture. Conditions: Staphylococcus aureus, MP12, read-out: MIC S. aureus MP-12.
The test system of experiment [2] is E. coli MP-4. Description: MIC determination by CLSI broth dilution, E. coli MP-4. Conditions: Escherichia coli, MP4, CLSI broth dilution; strain MP-4. For orientation: Broth dilution looks for growth in wells or tubes with falling amounts of substance.
Experiment [3] deals with K. pneumoniae MP-546. Briefly: MIC determination by CLSI broth dilution, K. pneumoniae MP-546. Particulars: Klebsiella pneumoniae, MP546, CLSI broth dilution; strain MP-546.
The subject of experiment [4] is K. pneumoniae MP-648. Description: MIC determination by CLSI broth dilution, K. pneumoniae MP-648. Conditions: Klebsiella pneumoniae, MP648, CLSI broth dilution; strain MP-648.
In experiment [5] the test system is P. aeruginosa MP-3. Briefly: MIC determination by CLSI broth dilution, P. aeruginosa MP-3. Conditions: Pseudomonas aeruginosa, MP3, strain MP-3.
Experiment [6] concerns A. baumannii MP-15. Briefly: MIC determination by CLSI broth dilution, A. baumannii MP-15. Conditions: Acinetobacter baumannii, MP15, strain MP-15, read-out: MIC A. baumanii MP-15.

SMILES strings stand for the structures. In brackets after ≈: the same amount, converted by molar mass.

`CCN1CCC(C[C@@H]2COC(=O)C(C)(C)C(=O)[C@H](C)[C@@H](O[C@@H]3O[C@H](C)C[C@H](N(C)C)[C@H]3O)[C@](C)(OC)C[C@@H](C)CN2CC)CC1` [Compound 118, (3R,6R,8R,9R,10R)-9-(((2S,3R,4S,6R)-4-(dimethylamino)-3-hydroxy-6-methyltetrahydro-2H-pyran-2-yl)oxy)-4-ethyl-3-((1-ethylpiperidin-4-yl)methyl)-8-methoxy-6,8,10,12,12-pentamethyl-1-oxa-4-azacyclotridecane-11,13-dione]: the MIC in experiment [1] is 4 to 32 µg/mL (≈ 6.25 to 50 µM); in experiment [2], < 4 µg/mL; in experiment [3], < 4 µg/mL; in experiment [4], < 4 µg/mL; in experiment [5], > 32 µg/mL; in experiment [6], 4 to 32 µg/mL (≈ 6.25 to 50 µM).

Take `CO[C@]1(C)C[C@@H](C)CN(C)[C@@H](CCCN2CCOCC2)COC(=O)C(C)(C)C(=O)[C@H](C)[C@H]1O[C@@H]1O[C@H](C)C[C@H](N(C)C)[C@H]1O` [Compound 105, (3S,6R,8R,9R,10R)-9-(((2S,3R,4S,6R)-4-(dimethylamino)-3-hydroxy-6-methyltetrahydro-2H-pyran-2-yl)oxy)-8-methoxy-4,6,8,10,12,12-hexamethyl-3-(3-morpholinopropyl)-1-oxa-4-azacyclotridecane-11,13-dione]: the MIC in experiment [1] is 4 to 32 µg/mL (≈ 6.37 to 51 µM); in experiment [2] it was < 4 µg/mL; in experiment [3], 4 to 32 µg/mL (≈ 6.37 to 51 µM); in experiment [4] it was 4 to 32 µg/mL (≈ 6.37 to 51 µM); in experiment [5] it was > 32 µg/mL; in experiment [6], > 32 µg/mL.

As for `CO[C@]1(C)C[C@@H](C)CN(C)[C@@H](CCCN2CCCC2)COC(=O)C(C)(C)C(=O)[C@H](C)[C@H]1O[C@@H]1O[C@H](C)C[C@H](N(C)C)[C@H]1O` [Compound 107, (3S,6R,8R,9R,10R)-9-(((2S,3R,4S,6R)-4-(dimethylamino)-3-hydroxy-6-methyltetrahydro-2H-pyran-2-yl)oxy)-8-methoxy-4,6,8,10,12,12-hexamethyl-3-(3-(pyrrolidin-1-yl)propyl)-1-oxa-4-azacyclotridecane-11,13-dione], the MIC in experiment [1] was 4 to 32 µg/mL (≈ 6.54 to 52.3 µM); in experiment [2] it was < 4 µg/mL; in experiment [3] it was < 4 µg/mL; in experiment [4], < 4 µg/mL; in experiment [5] it was > 32 µg/mL; in experiment [6] it was > 32 µg/mL.

In the case of `CCCCCCCN1CCC(C[C@@H]2COC(=O)C(C)(C)C(=O)[C@H](C)[C@@H](O[C@@H]3O[C@H](C)C[C@H](N(C)C)[C@H]3O)[C@](C)(OC)C[C@@H](C)CN2C)CC1` [Compound 56], the MIC in experiment [1] was 4 to 32 µg/mL (≈ 5.75 to 46 µM); in experiment [2], < 4 µg/mL; in experiment [3], < 4 µg/mL; in experiment [4], < 4 µg/mL; in experiment [5], > 32 µg/mL; in experiment [6], > 32 µg/mL.

Turning to `CCN1C[C@H](C)C[C@@](C)(OC)[C@H](O[C@@H]2O[C@H](C)C[C@H](N(C)C)[C@H]2O)[C@@H](C)C(=O)C(C)(C)C(=O)OC[C@@H]1CCCN1CCCCC1` [Compound 129, (3S,6R,8R,9R,10R)-9-(((2S,3R,4S,6R)-4-(dimethylamino)-3-hydroxy-6-methyltetrahydro-2H-pyran-2-yl)oxy)-4-ethyl-8-methoxy-6,8,10,12,12-pentamethyl-3-(3-(piperidin-1-yl)propyl)-1-oxa-4-azacyclotridecane-11,13-dione], the MIC in experiment [1] is 4 to 32 µg/mL (≈ 6.25 to 50 µM); in experiment [2], < 4 µg/mL; in experiment [3], < 4 µg/mL; in experiment [4], < 4 µg/mL; in experiment [5], > 32 µg/mL; in experiment [6], > 32 µg/mL.

Regarding `CCCN1C[C@H](C)C[C@@](C)(OC)[C@H](O[C@@H]2O[C@H](C)C[C@H](N(C)C)[C@H]2O)[C@@H](C)C(=O)C(C)(C)C(=O)OC[C@@H]1CCCN1CCCC1` [Compound 127, (3S,6R,8R,9R,10R)-9-(((2S,3R,4S,6R)-4-(dimethylamino)-3-hydroxy-6-methyltetrahydro-2H-pyran-2-yl)oxy)-8-methoxy-6,8,10,12,12-pentamethyl-4-propyl-3-(3-(pyrrolidin-1-yl)propyl)-1-oxa-4-azacyclotridecane-11,13-dione], the MIC in experiment [1] was 4 to 32 µg/mL (≈ 6.25 to 50 µM); in experiment [2], < 4 µg/mL; in experiment [3], < 4 µg/mL; in experiment [4], < 4 µg/mL; in experiment [5], > 32 µg/mL; in experiment [6] it was > 32 µg/mL.

For the compound `CCCCCCCN1CCC([C@@H](O)[C@H]2COC(=O)C(C)(C)C(=O)[C@H](C)[C@@H](O[C@@H]3O[C@H](C)C[C@H](N(C)C)[C@H]3O)[C@](C)(OC)C[C@@H](C)CN2C)CC1` [Compound 22], the MIC in experiment [1] is > 32 µg/mL; in experiment [2] it was < 4 µg/mL; in experiment [3] it was 4 to 32 µg/mL (≈ 5.62 to 44.9 µM); in experiment [4] it was > 32 µg/mL; in experiment [5] it was > 32 µg/mL; in experiment [6] it was > 32 µg/mL.

Take `CO[C@]1(C)C[C@@H](C)CN(C)[C@H](CC2=CCN(CC3CC3)CC2)COC(=O)C(C)(C)C(=O)[C@H](C)[C@H]1O[C@@H]1O[C@H](C)C[C@H](N(C)C)[C@H]1O` [Compound 148]: the MIC in experiment [1] is 4 to 32 µg/mL (≈ 6.15 to 49.2 µM); in experiment [2], < 4 µg/mL; in experiment [3] it was 4 to 32 µg/mL (≈ 6.15 to 49.2 µM); in experiment [4], 4 to 32 µg/mL (≈ 6.15 to 49.2 µM); in experiment [5] it was > 32 µg/mL; in experiment [6] it was > 32 µg/mL.

For the compound `CCCN1CC(C[C@@H]2COC(=O)C(C)(C)C(=O)[C@H](C)[C@@H](O[C@@H]3O[C@H](C)C[C@H](N(C)C)[C@H]3O)[C@](C)(OC)C[C@@H](C)CN2C)C1` [Compound 1], the MIC in experiment [1] is > 32 µg/mL; in experiment [2], < 4 µg/mL; in experiment [3], 4 to 32 µg/mL (≈ 6.54 to 52.3 µM); in experiment [4], > 32 µg/mL; in experiment [5], > 32 µg/mL; in experiment [6] it was > 32 µg/mL.

In the case of `CO[C@]1(C)C[C@@H](C)CN(C)[C@H](CC2CCNCC2)COC(=O)C(C)(C)C(=O)[C@H](C)[C@H]1O[C@@H]1O[C@H](C)C[C@H](N(C)C)[C@H]1O` [Compound 51], the MIC in experiment [1] was > 32 µg/mL; in experiment [2], 4 to 32 µg/mL (≈ 6.69 to 53.5 µM); in experiment [3], > 32 µg/mL; in experiment [4], > 32 µg/mL; in experiment [5], > 32 µg/mL; in experiment [6], > 32 µg/mL.

With `CO[C@]1(C)C[C@@H](C)CN(CC(C)C)[C@@H](CCCN(C)C(C)C)COC(=O)C(C)(C)C(=O)[C@H](C)[C@H]1O[C@@H]1O[C@H](C)C[C@H](N(C)C)[C@H]1O` [Compound 8, (3S,6R,8R,9R,10R)-9-(((2S,3R,4S,6R)-4-(dimethylamino)-3-hydroxy-6-methyltetrahydro-2H-pyran-2-yl)oxy)-4-isobutyl-3-(3-(isopropyl(methyl)amino)propyl)-8-methoxy-6,8,10,12,12-pentamethyl-1-oxa-4-azacyclotridecane-11,13-dione], the MIC in experiment [1] is < 4 µg/mL; in experiment [2], < 4 µg/mL; in experiment [3], 4 to 32 µg/mL (≈ 6.1 to 48.8 µM); in experiment [4], 4 to 32 µg/mL (≈ 6.1 to 48.8 µM); in experiment [5] it was > 32 µg/mL; in experiment [6] it was > 32 µg/mL.

With `CO[C@]1(C)C[C@@H](C)CN(C)[C@H](CC2CCN(C3CCCC3)CC2)COC(=O)C(C)(C)C(=O)[C@H](C)[C@H]1O[C@@H]1O[C@H](C)C[C@H](N(C)C)[C@H]1O` [Compound 60], the MIC in experiment [1] is 4 to 32 µg/mL (≈ 6.01 to 48.1 µM); in experiment [2], < 4 µg/mL; in experiment [3] it was < 4 µg/mL; in experiment [4] it was < 4 µg/mL; in experiment [5] it was > 32 µg/mL; in experiment [6] it was > 32 µg/mL.

For `CO[C@]1(C)C[C@@H](C)CN(C)[C@@H](CCCN2CC[C@@H](F)C2)COC(=O)C(C)(C)C(=O)[C@H](C)[C@H]1O[C@@H]1O[C@H](C)C[C@H](N(C)C)[C@H]1O` [Compound 108, (3S,6R,8R,9R,10R)-9-(((2S,3R,4S,6R)-4-(dimethylamino)-3-hydroxy-6-methyltetrahydro-2H-pyran-2-yl)oxy)-3-(3-((R)-3-fluoropyrrolidin-1-yl)propyl)-8-methoxy-4,6,8,10,12,12-hexamethyl-1-oxa-4-azacyclotridecane-11,13-dione], the MIC in experiment [1] is 4 to 32 µg/mL (≈ 6.35 to 50.8 µM); in experiment [2] it was < 4 µg/mL; in experiment [3], < 4 µg/mL; in experiment [4], < 4 µg/mL; in experiment [5] it was > 32 µg/mL; in experiment [6], > 32 µg/mL.

As for `CO[C@]1(C)C[C@@H](C)CN(C)[C@@H](CCCN2CCC[C@@H]2C(F)(F)F)COC(=O)C(C)(C)C(=O)[C@H](C)[C@H]1O[C@@H]1O[C@H](C)C[C@H](N(C)C)[C@H]1O` [Compound 123, (3S,6R,8R,9R,10R)-9-(((2S,3R,4S,6R)-4-(dimethylamino)-3-hydroxy-6-methyltetrahydro-2H-pyran-2-yl)oxy)-8-methoxy-4,6,8,10,12,12-hexamethyl-3-(3-((R)-2-(trifluoromethyl)pyrrolidin-1-yl)propyl)-1-oxa-4-azacyclotridecane-11,13-dione], the MIC in experiment [1], in experiment [2], in experiment [3], in experiment [4], in experiment [5] and in experiment [6] was > 32 µg/mL each time.

Regarding `CO[C@]1(C)C[C@@H](C)CN(C)[C@H](CC2CN(CC(C)C)C2)COC(=O)C(C)(C)C(=O)[C@H](C)[C@H]1O[C@@H]1O[C@H](C)C[C@H](N(C)C)[C@H]1O` [Compound 74], the MIC in experiment [1], in experiment [2], in experiment [3], in experiment [4], in experiment [5] and in experiment [6] was > 32 µg/mL in each case.
